Assay results as given in PubChem BioAssay (NCI).
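Compound exposure: 48 hours, 5 concentrations, 96-well plates. GI50 is the concentration that inhibits growth by half. TGI: total growth inhibition.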

Experiments:
Test in all cases: NCI anticancer screen, dose series, 48 h
SF-268 CNS = system: SF-268 CNS
SNB-19 CNS = system: SNB-19 CNS
NCI-H460 lung = system: NCI-H460 lung
SW-620 colon = system: SW-620 colon
SN12C renal = system: SN12C renal
SK-MEL-28 melanoma = system: SK-MEL-28 melanoma
OVCAR-5 ovarian = system: OVCAR-5 ovarian
CCRF-CEM leukemia = system: CCRF-CEM leukemia
786-0 renal = system: 786-0 renal
MDA-MB-231 breast = system: MDA-MB-231 breast
UACC-257 melanoma = system: UACC-257 melanoma
HL-60(TB) leukemia = system: HL-60(TB) leukemia
MCF7 breast = system: MCF7 breast
NCI-H226 lung = system: NCI-H226 lung
HCT-116 colon = system: HCT-116 colon
PC-3 prostate = system: PC-3 prostate
EKVX NSCLC = system: EKVX NSCLC
SK-MEL-5 melanoma = system: SK-MEL-5 melanoma
MDA-MB-435 = system: MDA-MB-435
HCT-15 colon = system: HCT-15 colon
HT29 colon = system: HT29 colon
A498 renal = system: A498 renal
CAKI-1 renal = system: CAKI-1 renal
UO-31 renal = system: UO-31 renal
SF-295 CNS = system: SF-295 CNS
SR leukemia = system: SR leukemia
HOP-92 NSCLC = system: HOP-92 NSCLC
RXF 393 renal = system: RXF 393 renal
KM12 colon = system: KM12 colon
HS 578T breast = system: HS 578T breast
HOP-62 NSCLC = system: HOP-62 NSCLC
T-47D breast = system: T-47D breast
A549 NSCLC = system: A549 NSCLC
SK-OV-3 ovarian = system: SK-OV-3 ovarian
SF-539 CNS = system: SF-539 CNS
ACHN renal = system: ACHN renal
MALME-3M melanoma = system: MALME-3M melanoma
LOX IMVI melanoma = system: LOX IMVI melanoma
UACC-62 melanoma = system: UACC-62 melanoma
MOLT-4 leukemia = system: MOLT-4 leukemia
OVCAR-8 ovarian = system: OVCAR-8 ovarian
K-562 leukemia = system: K-562 leukemia
BT-549 breast = system: BT-549 breast
IGROV1 ovarian = system: IGROV1 ovarian
M14 melanoma = system: M14 melanoma
COLO 205 colon = system: COLO 205 colon
U251 CNS = system: U251 CNS
NCI-H23 lung = system: NCI-H23 lung
TK-10 renal = system: TK-10 renal
OVCAR-3 ovarian = system: OVCAR-3 ovarian
DU-145 prostate = system: DU-145 prostate
HCC-2998 colon = system: HCC-2998 colon
NCI-H522 lung = system: NCI-H522 lung
OVCAR-4 ovarian = system: OVCAR-4 ovarian
NCI/ADR-RES ovarian = system: NCI/ADR-RES ovarian
RPMI-8226 leukemia = system: RPMI-8226 leukemia
SK-MEL-2 melanoma = system: SK-MEL-2 melanoma

SMILES: O=C(/C=C\Sc1ccccn1)c1cccc(Br)c1
- GI50 (SF-268 CNS): 6.53 µM
- TGI (SF-268 CNS): 26.4 µM
- GI50 (SNB-19 CNS): 39.1 µM
- TGI (SNB-19 CNS): > 100 µM
- GI50 (NCI-H460 lung): 9.41 µM
- TGI (NCI-H460 lung): 29.6 µM
- GI50 (SW-620 colon): 2820 nM
- TGI (SW-620 colon): 8.41 µM
- GI50 (SN12C renal): 10.2 µM
- TGI (SN12C renal): 24.3 µM
- GI50 (SK-MEL-28 melanoma): 8.65 µM
- TGI (SK-MEL-28 melanoma): > 100 µM
- GI50 (OVCAR-5 ovarian): 15 µM
- TGI (OVCAR-5 ovarian): 29.5 µM
- GI50 (CCRF-CEM leukemia): 3000 nM
- TGI (CCRF-CEM leukemia): > 100 µM
- GI50 (786-0 renal): 2670 nM
- TGI (786-0 renal): 6.48 µM
- GI50 (MDA-MB-231 breast): 2350 nM
- TGI (MDA-MB-231 breast): 5.96 µM
- GI50 (UACC-257 melanoma): 21.2 µM
- TGI (UACC-257 melanoma): 43.4 µM
- GI50 (HL-60(TB) leukemia): 2250 nM
- TGI (HL-60(TB) leukemia): 6.32 µM
- GI50 (MCF7 breast): 1770 nM
- TGI (MCF7 breast): 6.18 µM
- GI50 (NCI-H226 lung): 2320 nM
- TGI (NCI-H226 lung): 5.46 µM
- GI50 (HCT-116 colon): 1950 nM
- TGI (HCT-116 colon): 3.85 µM
- GI50 (PC-3 prostate): 7.68 µM
- TGI (PC-3 prostate): 22.5 µM
- GI50 (EKVX NSCLC): 19.3 µM
- TGI (EKVX NSCLC): 35.7 µM
- GI50 (SK-MEL-5 melanoma): 14.1 µM
- TGI (SK-MEL-5 melanoma): 28 µM
- GI50 (MDA-MB-435): 9.12 µM
- TGI (MDA-MB-435): 77.9 µM
- GI50 (HCT-15 colon): 1400 nM
- TGI (HCT-15 colon): 3.23 µM
- GI50 (HT29 colon): 3.46 µM
- TGI (HT29 colon): > 100 µM
- GI50 (A498 renal): 19.5 µM
- TGI (A498 renal): 36.5 µM
- GI50 (CAKI-1 renal): 3.99 µM
- TGI (CAKI-1 renal): 17.2 µM
- GI50 (UO-31 renal): 5.15 µM
- TGI (UO-31 renal): 23.1 µM
- GI50 (SF-295 CNS): 16 µM
- TGI (SF-295 CNS): 39.6 µM
- GI50 (SR leukemia): 1680 nM
- TGI (SR leukemia): 3.79 µM
- GI50 (HOP-92 NSCLC): 2640 nM
- TGI (HOP-92 NSCLC): 7.85 µM
- GI50 (RXF 393 renal): 2640 nM
- TGI (RXF 393 renal): 8.62 µM
- GI50 (KM12 colon): 13.4 µM
- TGI (KM12 colon): 28.8 µM
- GI50 (HS 578T breast): 19.5 µM
- TGI (HS 578T breast): 83.3 µM
- GI50 (HOP-62 NSCLC): 17.4 µM
- TGI (HOP-62 NSCLC): 33.7 µM
- GI50 (T-47D breast): 7.54 µM
- TGI (T-47D breast): > 100 µM
- GI50 (A549 NSCLC): 23 µM
- TGI (A549 NSCLC): 80.3 µM
- GI50 (SK-OV-3 ovarian): > 100 µM
- TGI (SK-OV-3 ovarian): > 100 µM
- GI50 (SF-539 CNS): 8.15 µM
- TGI (SF-539 CNS): 25 µM
- GI50 (ACHN renal): 1650 nM
- TGI (ACHN renal): 3 µM
- GI50 (MALME-3M melanoma): 2830 nM
- TGI (MALME-3M melanoma): 8.97 µM
- GI50 (LOX IMVI melanoma): 1690 nM
- TGI (LOX IMVI melanoma): 3.12 µM
- GI50 (UACC-62 melanoma): 11.7 µM
- TGI (UACC-62 melanoma): 24.5 µM
- GI50 (MOLT-4 leukemia): 1600 nM
- TGI (MOLT-4 leukemia): 4.23 µM
- GI50 (OVCAR-8 ovarian): 3.53 µM
- TGI (OVCAR-8 ovarian): > 100 µM
- GI50 (K-562 leukemia): 2230 nM
- TGI (K-562 leukemia): 6.63 µM
- GI50 (BT-549 breast): 7.29 µM
- TGI (BT-549 breast): 32 µM
- GI50 (IGROV1 ovarian): 16.5 µM
- TGI (IGROV1 ovarian): 50.4 µM
- GI50 (M14 melanoma): 15 µM
- TGI (M14 melanoma): 43.4 µM
- GI50 (COLO 205 colon): 5.27 µM
- TGI (COLO 205 colon): > 100 µM
- GI50 (U251 CNS): 10.2 µM
- TGI (U251 CNS): 21.8 µM
- GI50 (NCI-H23 lung): 10.8 µM
- TGI (NCI-H23 lung): 25.1 µM
- GI50 (TK-10 renal): 3.25 µM
- TGI (TK-10 renal): 12.2 µM
- GI50 (OVCAR-3 ovarian): 5.54 µM
- TGI (OVCAR-3 ovarian): 24.2 µM
- GI50 (DU-145 prostate): 16.3 µM
- TGI (DU-145 prostate): 30.7 µM
- GI50 (HCC-2998 colon): 3.9 µM
- TGI (HCC-2998 colon): 15 µM
- GI50 (NCI-H522 lung): 2280 nM
- TGI (NCI-H522 lung): 5.84 µM
- GI50 (OVCAR-4 ovarian): 5.71 µM
- TGI (OVCAR-4 ovarian): > 100 µM
- GI50 (NCI/ADR-RES ovarian): 8.8 µM
- TGI (NCI/ADR-RES ovarian): > 100 µM
- GI50 (RPMI-8226 leukemia): 78.7 nM
- TGI (RPMI-8226 leukemia): > 100 µM

SMILES: CCOC(=O)C(Br)(C(N)=O)C1(O)OC(c2ccccc2)=C(Br)C1=O (stereo unspecified)
- TGI (SF-268 CNS): 41.5 µM
- TGI (SNB-19 CNS): > 100 µM
- TGI (NCI-H460 lung): > 100 µM
- TGI (SW-620 colon): 43.1 µM
- TGI (SN12C renal): 31.7 µM
- TGI (SK-MEL-28 melanoma): > 100 µM
- TGI (OVCAR-5 ovarian): 37 µM
- TGI (CCRF-CEM leukemia): 10.2 µM
- TGI (786-0 renal): 41.9 µM
- TGI (MDA-MB-231 breast): 33.6 µM
- TGI (UACC-257 melanoma): > 100 µM
- TGI (HL-60(TB) leukemia): > 100 µM
- TGI (MCF7 breast): 41 µM
- TGI (NCI-H226 lung): 42.3 µM
- TGI (HCT-116 colon): 36.5 µM
- TGI (PC-3 prostate): 36.3 µM
- TGI (EKVX NSCLC): 46.8 µM
- TGI (SK-MEL-5 melanoma): 60.2 µM
- TGI (MDA-MB-435): > 100 µM
- TGI (HCT-15 colon): 34.8 µM
- TGI (HT29 colon): 39.3 µM
- TGI (A498 renal): > 100 µM
- TGI (CAKI-1 renal): 40.1 µM
- TGI (UO-31 renal): 44 µM
- TGI (SF-295 CNS): > 100 µM
- TGI (SR leukemia): 41.3 µM
- TGI (RXF 393 renal): 34.4 µM
- TGI (KM12 colon): > 100 µM
- TGI (HS 578T breast): > 100 µM
- TGI (HOP-62 NSCLC): 81.2 µM
- TGI (T-47D breast): 59.6 µM
- TGI (A549 NSCLC): 66.8 µM
- TGI (SK-OV-3 ovarian): > 100 µM
- TGI (SF-539 CNS): 32.3 µM
- TGI (SK-MEL-2 melanoma): > 100 µM
- TGI (ACHN renal): 32.3 µM
- TGI (MALME-3M melanoma): 55.6 µM
- TGI (LOX IMVI melanoma): 46.1 µM
- TGI (UACC-62 melanoma): 92.9 µM
- TGI (OVCAR-8 ovarian): 33.3 µM
- TGI (K-562 leukemia): 53.7 µM
- TGI (BT-549 breast): 34.3 µM
- TGI (IGROV1 ovarian): 43.5 µM
- TGI (M14 melanoma): 62.9 µM
- TGI (COLO 205 colon): 30.7 µM
- TGI (U251 CNS): 32.6 µM
- TGI (NCI-H23 lung): 53.7 µM
- TGI (TK-10 renal): 33.3 µM
- TGI (OVCAR-3 ovarian): 55 µM
- TGI (DU-145 prostate): > 100 µM
- TGI (HCC-2998 colon): 35 µM
- TGI (NCI-H522 lung): 11.7 µM
- TGI (NCI/ADR-RES ovarian): > 100 µM
- TGI (RPMI-8226 leukemia): 27.7 µM
